# Test results taken from publication PMC10388362, “Fluorescent Ligands Enable Target Engagement Studies for the Intracellular Allosteric Binding Site of the Chemokine Receptor CXCR2” (Journal of Medicinal Chemistry, 2023).
# Values joined by “and” are separate entries in the source; they are usually repeats but may differ in a detail not shown here. Identical values can stand only once.
# Biological target: T1, CXCR2 (Homo sapiens, UniProt P25025)
# T1 construct: Promega pNLF1-C (Nluc) #CXCR20TN00; host or cells: HEK293T, transient transfection (PEI)
# T1 sequence (P25025 1-360): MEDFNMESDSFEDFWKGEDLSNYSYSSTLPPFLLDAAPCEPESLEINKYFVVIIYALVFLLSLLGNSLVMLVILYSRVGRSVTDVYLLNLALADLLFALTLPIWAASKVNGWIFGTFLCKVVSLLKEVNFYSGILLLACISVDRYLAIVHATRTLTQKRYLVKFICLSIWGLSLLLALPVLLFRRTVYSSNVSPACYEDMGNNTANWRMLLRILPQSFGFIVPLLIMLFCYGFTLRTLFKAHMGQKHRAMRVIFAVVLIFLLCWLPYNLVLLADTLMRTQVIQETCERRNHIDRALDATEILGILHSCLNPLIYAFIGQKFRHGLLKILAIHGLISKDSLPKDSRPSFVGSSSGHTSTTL
# Assay: Membrane-based NanoBRET association and dissociation kinetic assay
# Format: binding
# Experimental: 5 μL of a solution of the fluorescent ligand (9a) diluted to varying concentrations (final assay concentrations: 10–100 nM) in the assay buffer and 5 μL of the assay buffer were transferred to a 384-well plate. For the determination of nonspecific binding, we added a solution of a nonlabeled competitor dissolved in the assay buffer (3, final assay concentration: 10 μM) instead. After the addition of 5 μL of a furimazine solution (final assay dilution: 1:350 in assay buffer), plates were incubated for 3 min in the dark at ambient temperature. Subsequently, 20 μL of the membrane preparation (2 μg total protein/well) was added (final assay volume: 35 μL). BRET ratios were measured with a CLARIOstar microplate reader using 620/10 and 475/30 nm emission filters over time at ambient temperature or 37 °C. The obtained data were analyzed using the association kinetics (one ligand concentration) algorithm in PRISM9.5 (GraphPad) to determine association kinetics using a predetermined koff as a constraint.
# 5 μL of a solution of the fluorescent ligand (9a) diluted to varying concentrations (final assay concentrations: 10–100 nM) in the assay buffer and 5 μL of the assay buffer were transferred to a 384-well plate. In order to determine nonspecific binding, we added a solution of a nonlabeled competitor dissolved in the assay buffer (3, final assay concentration: 10 μM) instead of the 5 μL of the assay buffer. Then, 20 μL of the membrane preparation (2 μg total protein/well) was added, and plates were incubated for 4 h at ambient temperature in the dark. Subsequently, 5 μL of a vivazine solution (final assay dilution: 1:350 in assay buffer) was added. Plates were incubated for further 60 min in the dark at ambient temperature. Thereafter, 1 μL of a solution of a […] competitor dissolved in the assay buffer (3, final assay concentration: 10 μM) was added. For control experiments, we added 1 μL of the assay buffer instead of the competitor solution. BRET ratios were measured with a CLARIOstar microplate reader using 620/10 and 475/30 nm emission filters over time at ambient temperature or 37 °C. Specific BRET ratios were calculated as a difference of total and nonspecific binding. The obtained data were analyzed using the dissociation—one phase exponential decay algorithm in PRISM9.5 (GraphPad) to determine dissociation kinetics.
# [1] = CXCR2_Nluc membranes, 37 °C, mean
# [2] = CXCR2_Nluc membranes, room temperature, mean
# [3] = membranes, 37 °C, 9a 10 nM, single determinations
# [4] = membranes, 37 °C, 9a 10 nM, single determinations, koff fixed 0.00569 min-1
# [5] = membranes, 37 °C, 9a 25 nM, single determinations
# [6] = membranes, 37 °C, 9a 25 nM, single determinations, koff fixed 0.00569 min-1
# [7] = membranes, 37 °C, 9a 50 nM, single determinations
# [8] = membranes, 37 °C, 9a 50 nM, single determinations, koff fixed 0.00569 min-1
# [9] = membranes, 37 °C, 9a 100 nM, single determinations
# [10] = membranes, 37 °C, 9a 100 nM, single determinations, koff fixed 0.00569 min-1
# [11] = membranes, room temperature, 9a 10 nM, single determinations
# [12] = membranes, room temperature, 9a 25 nM, single determinations
# [13] = membranes, room temperature, 9a 50 nM, single determinations
# [14] = membranes, room temperature, 9a 100 nM, single determinations
compound,measurement,setting,value
"Cc1ccc([C@H](Nc2c(Nc3cccc(C(=O)NCc4cn(CCOCCOCCOCCNC(=O)c5ccc(C(=O)[O-])c(-c6c7ccc(=[N+](C)C)cc-7oc7cc(N(C)C)ccc67)c5)nn4)c3O)c(=O)c2=O)C(C)(C)C)o1 [9a, (R)-4-((2-(2-(2-(2-(4-((3-((2-((2,2-Dimethyl-1-(5-methylfuran-2-yl)propyl)amino)-3,4-dioxocyclobut-1-en-1-yl)amino)-2-hydroxybenzamido)methyl)-1H-1,2,3-triazol-1-yl)ethoxy)ethoxy)ethoxy)ethyl)carbamoyl)-2-(6-(dimethylamino)-3-(dimethyliminio)-3H-xanthen-9-yl)benzoate]",koff,[1],9.48e-05 s⁻¹
same,kon,[1],32600 M⁻¹ s⁻¹
same,tR,[1],178.8 min
same,Kd,"CXCR2_Nluc membranes, cell-free, 37 °C",2.91 ± 0.27 nM
same,Kd,"CXCR2_Nluc membranes, room temperature",1.94 ± 0.27 nM
same,koff,[2],3.57e-05 s⁻¹
same,kon,[2],18300 M⁻¹ s⁻¹
same,residence time tr,[2],485.6 min
same,residence time,"CXCR2_Nluc membranes, room temperature, mean, read-out: residence time tr",486 ± 28 min
same,koff,[3],8.83e-05 s⁻¹
same,koff [min-1],[3],0.00567 min⁻¹ and 0.00464 min⁻¹
same,tR,[3],188.6 min and 176.4 min and 215.5 min
same,kon,[4],42500 M⁻¹ s⁻¹
same,kon [M-1 min-1],[4],52685.82 M⁻¹ s⁻¹ and 46570.12 M⁻¹ s⁻¹
same,koff,[5],0.000102 s⁻¹
same,koff [min-1],[5],0.00658 min⁻¹ and 0.00473 min⁻¹
same,tR,[5],162.5 min and 152.0 min and 211.3 min
same,kon,[6],29600 M⁻¹ s⁻¹
same,kon [M-1 min-1],[6],40515.73 M⁻¹ s⁻¹ and 31065.33 M⁻¹ s⁻¹
same,koff,[7],9.33e-05 s⁻¹
same,koff [min-1],[7],0.0059 min⁻¹ and 0.00531 min⁻¹
same,tR,[7],178.6 min and 169.4 min and 188.3 min
same,kon,[8],26700 M⁻¹ s⁻¹
same,kon [M-1 min-1],[8],29466.47 M⁻¹ s⁻¹ and 24036.28 M⁻¹ s⁻¹
same,koff,[9],0.000105 s⁻¹
same,koff [min-1],[9],0.00726 min⁻¹ and 0.00487 min⁻¹
same,tR,[9],159.6 min and 137.7 min and 205.4 min
same,kon,[10],23300 M⁻¹ s⁻¹
same,kon [M-1 min-1],[10],25508.45 M⁻¹ s⁻¹ and 19799.72 M⁻¹ s⁻¹
same,koff,[11],3.12e-05 s⁻¹
same,koff [min-1],[11],0.00183 min⁻¹ and 0.00215 min⁻¹
same,tR,[11],534.2 min and 545.6 min and 464.7 min
same,koff,[12],2.9e-05 s⁻¹
same,koff [min-1],[12],0.00253 min⁻¹ and 0.00232 min⁻¹
same,tR,[12],575.7 min and 394.8 min and 431.4 min
same,koff,[13],2.68e-05 s⁻¹
same,koff [min-1],[13],0.00305 min⁻¹ and 0.00242 min⁻¹
same,tR,[13],619.6 min and 328.4 min and 413.1 min
same,koff,[14],2.58e-05 s⁻¹
same,koff [min-1],[14],0.00219 min⁻¹ and 0.00238 min⁻¹
same,tR,[14],643.1 min and 457.0 min and 420.0 min
